Measured values: patent publication US10894784B2, “Heteroarylbenzimidazole compounds” (BAYER PHARMA AKTIENGESELLSCHAFT, priority 2015, dated 2021)

Molecular target: TBK1 (Homo sapiens (Human), UniProt Q9UHD2)
Test: TBK1 low ATP kinase assay (in vitro assay 1)
Assay type: biochemical
Conditions: in vitro assay 1, read-out: TBK1 low ATP kinase assay IC50

Sequence of TBK1 (Q9UHD2 whole entry): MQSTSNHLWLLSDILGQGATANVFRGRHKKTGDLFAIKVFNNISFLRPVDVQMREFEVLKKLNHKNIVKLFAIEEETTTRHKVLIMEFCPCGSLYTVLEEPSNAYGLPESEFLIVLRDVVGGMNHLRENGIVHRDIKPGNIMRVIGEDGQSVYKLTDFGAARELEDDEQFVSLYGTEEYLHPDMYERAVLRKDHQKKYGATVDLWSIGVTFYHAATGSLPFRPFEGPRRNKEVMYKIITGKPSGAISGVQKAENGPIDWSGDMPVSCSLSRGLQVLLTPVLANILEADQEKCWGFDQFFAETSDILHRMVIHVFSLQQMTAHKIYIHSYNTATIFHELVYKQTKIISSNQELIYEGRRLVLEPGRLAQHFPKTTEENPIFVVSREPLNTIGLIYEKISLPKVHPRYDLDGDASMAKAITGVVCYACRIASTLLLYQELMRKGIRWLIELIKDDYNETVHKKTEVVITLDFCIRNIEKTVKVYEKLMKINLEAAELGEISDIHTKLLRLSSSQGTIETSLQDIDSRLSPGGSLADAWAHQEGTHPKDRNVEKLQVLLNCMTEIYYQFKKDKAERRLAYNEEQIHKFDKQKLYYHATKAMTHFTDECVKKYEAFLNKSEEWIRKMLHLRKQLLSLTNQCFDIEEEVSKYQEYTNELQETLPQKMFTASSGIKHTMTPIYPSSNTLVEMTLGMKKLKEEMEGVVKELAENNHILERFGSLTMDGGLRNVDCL

Structure (SMILES) | IC50
Cc1noc(-c2ccc3nc(Nc4cc(CN5CCN(C(=O)CC(F)(F)F)CC5)c(Br)cn4)[nH]c3c2)n1 [Example 125.02, 1-{4-[(5-bromo-2-{[6-(3-methyl-1,2,4-oxadiazol-5-yl)-1H-benzimidazol-2-yl]amino}pyridin-4-yl)methyl]piperazin-1-yl}-3,3,3-trifluoropropan-1-one] | 650 nM
COc1cnc(OCC2CC2)nc1-c1ccc2nc(Nc3cc(CN4CCN(C(=O)C5CC5)CC4)ccn3)[nH]c2c1 [Example 64.01.02, cyclopropyl(4-{[2-({6-[2-(cyclopropylmethoxy)-5-methoxypyrimidin-4-yl]-1H-benzimidazol-2-yl}amino)pyridin-4-yl]methyl}piperazin-1-yl)methanone] | 33.7 nM
CCNc1cc(-c2ccc3nc(Nc4cc(CN5CCN(C(=O)OC(C)(C)C)CC5)ccn4)[nH]c3c2)ncn1 [Example 149.01, tert-butyl 4-{[2-({6-[6-(ethylamino)pyrimidin-4-yl]-1H-benzimidazol-2-yl}amino)pyridin-4-yl]methyl}piperazine-1-carboxylate] | 4.7 nM
CC(c1ccnc(Nc2nc3ccc(-c4cnn(CC5CC5)c4)c(F)c3[nH]2)c1)N1CCN(C(=O)C2CC2)CC1 (single isomer, unassigned) [Example 121.03, cyclopropyl(4-{(1R or 1S)-1-[2-({6-[1-(cyclopropylmethyl)-1H-pyrazol-4-yl]-7-fluoro-1H-benzimidazol-2-yl}amino)pyridin-4-yl]ethyl}piperazin-1-yl)methanone] | 1.6 nM
CC(C)(C)OC(=O)N1CCN(Cc2ccnc(Nc3nc4ccc(-c5ccnc(N6CCOCC6)c5)cc4[nH]3)c2)CC1 [Example 134.01, tert-butyl 4-{[2-({6-[2-(morpholin-4-yl)pyridin-4-yl]-1H-benzimidazol-2-yl}amino)pyridin-4-yl]methyl}piperazine-1-carboxylate] | 57 nM
CC(c1ccnc(Nc2nc3ccc(-c4cc(N5CC(C(F)(F)F)C5)ncn4)cc3[nH]2)c1)N1CCN(C(=O)[C@@H]2CC2(F)F)CC1 (single isomer, unassigned) [Example 164.05, ((1RS)-2,2-difluorocyclopropyl){4-[(1R or 1S)-1-[2-[(6-{6-[3-(trifluoromethyl)azetidin-1-yl]pyrimidin-4-yl}-1H-benzimidazol-2-yl)amino]pyridin-4-yl}ethyl]piperazin-1-yl}methanone] | 0.566 nM
CC(c1ccnc(Nc2nc3ccc(-c4cnn(CC5CC5(F)F)c4)cc3[nH]2)c1)N1CCN(C(=O)OC(C)(C)C)CC1 (single isomer, unassigned) [Example 55.01.02, tert-butyl 4-[(1R or 1S)-1-(2-{[6-(1-{[(1R or 1S)-2,2-difluorocyclopropyl]methyl}-1H-pyrazol-4-yl)-1H-benzimidazol-2-yl]amino}pyridin-4-yl)ethyl]piperazine-1-carboxylate] | 4.8 nM
Cc1noc(-c2ccc3nc(Nc4cc(CN5CCN(c6ccncc6)CC5)ccn4)[nH]c3c2)n1 [Example 101.12, 6-(3-methyl-1,2,4-oxadiazol-5-yl)-N-(4-{[4-(pyridin-4-yl)piperazin-1-yl]methyl}pyridin-2-yl)-1H-benzimidazol-2-amine] | 450 nM
Cc1cc(-c2ccc3nc(Nc4cc(C(C)N5CCN(C(=O)C6CC6)CC5)ccn4)[nH]c3c2)n(C)n1 (single isomer, unassigned) [Example 89.03, cyclopropyl{4-[(1R or 1S)-1-(2-{[6-(1,3-dimethyl-1H-pyrazol-5-yl)-1H-benzimidazol-2-yl]amino}pyridin-4-yl)ethyl]piperazin-1-yl}methanone] | 320 nM
COc1cnccc1-c1ccc2nc(Nc3cc(CN4CCN(C(=O)CC5CC5)CC4)ccn3)[nH]c2c1 [Example 04.05, 2-cyclopropyl-1-{4-[(2-{[6-(3-methoxypyridin-4-yl)-1H-benzimidazol-2-yl]amino}pyridin-4-yl)methyl]piperazin-1-yl}ethanone] | 25.3 nM
CC(c1ccnc(Nc2nc3ccc(-c4cnn(CC5CC5)c4)c(Cl)c3[nH]2)c1)N1CCN(C(=O)CC(F)(F)F)CC1 (single isomer, unassigned) [Example 122.02, 1-(4-{(1R or 1S)-1-[2-({7-chloro-6-[1-(cyclopropylmethyl)-1H-pyrazol-4-yl]-1H-benzimidazol-2-yl}amino)pyridin-4-yl]ethyl}piperazin-1-yl)-3,3,3-trifluoropropan-1-one] | 1.2 nM
CN(C)c1cnc(-c2ccc3nc(Nc4cc(CN5CCN(C(=O)C6CC6)CC5)ccn4)[nH]c3c2)cn1 [Example 144.03, cyclopropyl(4-{[2-({6-[5-(dimethylamino)pyrazin-2-yl]-1H-benzimidazol-2-yl}amino)pyridin-4-yl]methyl}piperazin-1-yl)methanone] | 440 nM
CC(C)Oc1cc(-c2ccc3nc(Nc4cc(CN5CCN(C(=O)OC(C)(C)C)CC5)ccn4)[nH]c3c2)ncn1 [Example 160.01, tert-butyl 4-{[2-({6-[6-(propan-2-yloxy)pyrimidin-4-yl]-1H-benzimidazol-2-yl}amino)pyridin-4-yl]methyl}piperazine-1-carboxylate] | 64 nM
Cc1cnn(C)c1-c1ccc2nc(Nc3cc(C(C)N4CCN(C(=O)CC(F)(F)F)CC4)ccn3)[nH]c2c1 (single isomer, unassigned) [Example 73.01, 1-{4-[(1R or 1S)-1-(2-{[6-(1,4-dimethyl-1H-pyrazol-5-yl)-1H-benzimidazol-2-yl]amino}pyridin-4-yl)ethyl]piperazin-1-yl}-3,3,3-trifluoropropan-1-one] | 67 nM
COc1cnccc1-c1ccc2nc(Nc3cc(CN4CCN(C(=O)CC(F)(F)F)CC4)ccn3)[nH]c2c1 [Example 04.02, 3,3,3-trifluoro-1-{4-[(2-{[6-(3-methoxypyridin-4-yl)-1H-benzimidazol-2-yl]amino}pyridin-4-yl)methyl]piperazin-1-yl}propan-1-one] | 16.4 nM
CC(c1ccnc(Nc2nc3ccc(-c4cnn(CC5CCC5)c4)c(Cl)c3[nH]2)c1)N1CCN(C(=O)OC(C)(C)C)CC1 (single isomer, unassigned) [Example 75.01, tert-butyl 4-{(1R or 1S)-1-[2-({7-chloro-6-[1-(cyclobutylmethyl)-1H-pyrazol-4-yl]-1H-benzimidazol-2-yl}amino)pyridin-4-yl]ethyl}piperazine-1-carboxylate] | 20 nM
CC(c1ccnc(Nc2nc3ccc(-c4cnn(CC5(C)CC5)c4)cc3[nH]2)c1)N1CCN(C(=O)OC(C)(C)C)CC1 (single isomer, unassigned) [Example 68.01, tert-butyl 4-[(1R or 1S)-1-{2-[(6-{1-[(1-methylcyclopropyl)methyl]-1H-pyrazol-4-yl}-1H-benzimidazol-2-yl)amino]pyridin-4-yl}ethyl]piperazine-1-carboxylate] | 26 nM
Cn1cc(-c2ccc3nc(Nc4cc(CN5CCN(C(=O)C6CCC6)CC5)ccn4)[nH]c3c2)cn1 [Example 37.04, cyclobutyl{4-[(2-{[6-(1-methyl-1H-pyrazol-4-yl)-1H-benzimidazol-2-yl]amino}pyridin-4-yl)methyl]piperazin-1-yl}methanone] | 73.9 nM
COc1cnccc1-c1ccc2nc(Nc3cc(CN4CCN(C(=O)CC(F)(F)F)CC4)ccn3)[nH]c2c1OCC(C)C [Example 50.01, 3,3,3-trifluoro-1-{4-[(2-{[6-(3-methoxypyridin-4-yl)-7-(2-methylpropoxy)-1H-benzimidazol-2-yl]amino}pyridin-4-yl)methyl]piperazin-1-yl}propan-1-one] | 499 nM
Cc1noc(-c2ccc3nc(Nc4cc(CN5C[C@@H](C)N(C(=O)CC6CC6)C[C@@H]5C)ccn4)[nH]c3c2)n1 [Example 16.02.03, 2-cyclopropyl-1-{(2R,5S)-2,5-dimethyl-4-[(2-{[6-(3-methyl-1,2,4-oxadiazol-5-yl)-1H-benzimidazol-2-yl]amino}pyridin-4-yl)methyl]piperazin-1-yl}ethanone] | 227 nM
COc1c(NCC2CC2)ncnc1-c1ccc2nc(Nc3cc(C(C)N4CCN(C(=O)OC(C)(C)C)CC4)ccn3)[nH]c2c1 (single isomer, unassigned) [Example 109.02.01, tert-butyl 4-[(1R or 1S)-1-{2-[(6-{6-[(cyclopropylmethyl)amino]-5-methoxypyrimidin-4-yl}-1H-benzimidazol-2-yl)amino]pyridin-4-yl}ethyl]piperazine-1-carboxylate] | 8 nM
COc1cc(-c2ccc3nc(Nc4cc(CN5CCN(C(=O)CC(F)(F)F)CC5)ccn4)[nH]c3c2)ccn1 [Example 02.03, 3,3,3-trifluoro-1-{4-[(2-{[6-(2-methoxypyridin-4-yl)-1H-benzimidazol-2-yl]amino}pyridin-4-yl)methyl]piperazin-1-yl}propan-1-one] | 36.8 nM
Cc1nccc(-c2ccc3nc(Nc4cc(C(C)N5CCN(C(=O)C6CC6)CC5)ccn4)[nH]c3c2)n1 (racemic) [Example 24.04.01, (rac)-cyclopropyl{4-[1-(2-{[6-(2-methylpyrimidin-4-yl)-1H-benzimidazol-2-yl]amino}pyridin-4-yl)ethyl]piperazin-1-yl}methanone] | 9.19 nM
CC(c1ccnc(Nc2nc3ccc(-c4cc(N5CCC5)ncn4)cc3[nH]2)c1)N1CCN(C(=O)C2CC2)CC1 (single isomer, unassigned) [Example 115.03, (4-{(1R or 1S)-1-[2-({6-[6-(azetidin-1-yl)pyrimidin-4-yl]-1H-benzimidazol-2-yl}amino)pyridin-4-yl]ethyl}piperazin-1-yl)(cyclopropyl)methanone] | 0.62 nM
CC(c1ccnc(Nc2nc3ccc(-c4cc(OCC(F)(F)F)ncn4)cc3[nH]2)c1)N1CCN(C(=O)C2(C(F)(F)F)CC2)CC1 (single isomer, unassigned) [Example 119.04, (4-{(1R or 1S)-1-[2-({6-[6-(2,2,2-trifluoroethoxy)pyrimidin-4-yl]-1H-benzimidazol-2-yl}amino)pyridin-4-yl]ethyl}piperazin-1-yl)[1-(trifluoromethyl)cyclopropyl]methanone] | 10.9 nM
COc1cnnc(-c2ccc3nc(Nc4cc(CN5CCN(C(=O)C6CC6)CC5)ccn4)[nH]c3c2)c1 [Example 47.02, cyclopropyl{4-[(2-{[6-(5-methoxypyridazin-3-yl)-1H-benzimidazol-2-yl]amino}pyridin-4-yl)methyl]piperazin-1-yl}methanone] | 504 nM
